Source: ChEMBL document CHEMBL1201862, “PubChem BioAssay data set” (2004)
Active and inactive are the calls of the source.

Tests used:
SUMO-activating enzyme [1] = target: T1, SUMO-activating enzyme (Homo sapiens, UniProt Q9UBT2); test: blockers of UBC9-mediated SUMO conjugation – biochemical, AlphaScreen, SUMOylation inhibitor project, confirmation (AID 2018); assay type: functional
[2] = target: Induced myeloid leukemia cell differentiation protein Mcl-1 (Homo sapiens, UniProt Q07820); assay type: functional
Induced myeloid leukemia cell differentiation protein Mcl-1, sequence (Q07820 whole entry): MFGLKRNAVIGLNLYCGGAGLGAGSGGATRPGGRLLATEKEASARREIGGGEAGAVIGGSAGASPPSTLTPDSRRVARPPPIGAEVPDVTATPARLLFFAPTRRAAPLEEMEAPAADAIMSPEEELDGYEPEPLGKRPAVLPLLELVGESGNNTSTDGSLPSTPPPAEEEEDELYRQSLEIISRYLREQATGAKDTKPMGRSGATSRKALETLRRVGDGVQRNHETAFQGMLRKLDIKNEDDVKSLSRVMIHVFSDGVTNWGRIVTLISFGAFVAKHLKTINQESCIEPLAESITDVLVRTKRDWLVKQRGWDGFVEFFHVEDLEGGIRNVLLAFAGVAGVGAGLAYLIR

SUMO-activating enzyme [3] = target: T1, SUMO-activating enzyme; test: blockers of SAE1/SAE2–UBC9 SUMO transfer – biochemical, HTRF, uHTS, primary screen (AID 2006); assay type: protein-complex assay
Phosphomannomutase 2 = Phosphomannomutase 2 (Homo sapiens, UniProt O15305); test: Counter screen SAR assay for PMM2 inhibitors via a fluorescence intensity assay. [Related pubchem assays (depositor defined):AID1545, AID1574]
Phosphomannomutase 2, sequence (O15305 whole entry): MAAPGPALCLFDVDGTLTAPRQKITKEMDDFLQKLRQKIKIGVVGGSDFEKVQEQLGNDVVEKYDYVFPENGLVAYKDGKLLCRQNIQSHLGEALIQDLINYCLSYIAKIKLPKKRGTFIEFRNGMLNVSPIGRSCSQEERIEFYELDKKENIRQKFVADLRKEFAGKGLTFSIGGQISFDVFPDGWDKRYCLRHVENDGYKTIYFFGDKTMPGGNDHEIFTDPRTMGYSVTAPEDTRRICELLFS

[4] = target: T2, Mannose-6-phosphate isomerase (Homo sapiens, UniProt P34949); test: phosphomannose isomerase inhibition – biochemical, fluorescence intensity, confirmation (AID 1535)
T2 sequence (P34949 whole entry): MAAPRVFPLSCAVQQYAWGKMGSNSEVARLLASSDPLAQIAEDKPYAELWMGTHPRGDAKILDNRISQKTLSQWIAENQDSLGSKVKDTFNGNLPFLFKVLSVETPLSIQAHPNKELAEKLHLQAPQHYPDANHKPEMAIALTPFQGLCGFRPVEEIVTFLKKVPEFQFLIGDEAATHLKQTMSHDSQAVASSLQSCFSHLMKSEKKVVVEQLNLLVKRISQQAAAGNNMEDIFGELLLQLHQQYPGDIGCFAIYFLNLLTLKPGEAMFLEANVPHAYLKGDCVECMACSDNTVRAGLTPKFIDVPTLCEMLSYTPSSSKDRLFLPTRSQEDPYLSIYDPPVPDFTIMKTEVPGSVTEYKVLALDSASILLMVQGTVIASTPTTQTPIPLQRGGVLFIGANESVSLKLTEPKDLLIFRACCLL

[5] = target: Phosphoethanolamine/phosphocholine phosphatase (Homo sapiens, UniProt Q8TCT1); test: SAR assay for compounds that inhibit PHOSPHO1. [Related pubchem assays (depositor defined):AID1545, AID1565, AID1574]
Phosphoethanolamine/phosphocholine phosphatase, sequence (Q8TCT1 whole entry, the tested form may be a part): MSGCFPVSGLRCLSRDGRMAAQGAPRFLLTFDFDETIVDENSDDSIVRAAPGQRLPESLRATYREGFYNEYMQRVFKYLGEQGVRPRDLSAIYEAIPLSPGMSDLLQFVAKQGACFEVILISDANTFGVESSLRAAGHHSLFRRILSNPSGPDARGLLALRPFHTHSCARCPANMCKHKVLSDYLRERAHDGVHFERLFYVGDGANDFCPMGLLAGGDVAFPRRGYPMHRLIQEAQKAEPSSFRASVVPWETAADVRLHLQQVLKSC

[6] = target: T3, Oxysterols receptor LXR-beta (Homo sapiens, UniProt P55055); test: LXR agonists, Gal4 luciferase reporter, dose response, counter-screen for ssDAF-12 agonist project, cell-based, luminescence, HEK293, S. stercoralis campaign (AID 720737); assay type: functional; settings: read-out: IC50 (the source's name)
T3 sequence (P55055 whole entry): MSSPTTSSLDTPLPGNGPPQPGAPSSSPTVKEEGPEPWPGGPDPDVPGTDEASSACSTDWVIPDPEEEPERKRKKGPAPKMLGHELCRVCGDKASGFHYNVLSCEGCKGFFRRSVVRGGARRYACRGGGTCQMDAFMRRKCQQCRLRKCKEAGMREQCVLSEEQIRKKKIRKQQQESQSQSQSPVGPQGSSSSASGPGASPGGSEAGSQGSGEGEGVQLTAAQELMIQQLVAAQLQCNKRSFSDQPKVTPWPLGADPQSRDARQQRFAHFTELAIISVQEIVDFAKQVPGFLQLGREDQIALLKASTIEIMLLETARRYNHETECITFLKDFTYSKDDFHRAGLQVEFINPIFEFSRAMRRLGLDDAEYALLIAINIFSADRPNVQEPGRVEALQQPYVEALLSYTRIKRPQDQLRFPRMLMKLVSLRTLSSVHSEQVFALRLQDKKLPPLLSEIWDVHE

[7] = Cytotoxicity screening for potential Inhibitors of Bacterial Capsule Biogenesis. [Related pubchem assays (depositor defined):AID488970]; assay type: functional
[8] = Luminescence-based cell-based high throughput dose response assay to identify activators of the DAF-12 from the parasite S. stercoralis (ssDAF-12).; assay type: functional
[9] = reduction of Shn3 3'UTR-driven luciferase in osteoblasts – cell-based, Clone20 osteoblasts, firefly luciferase, cherry-picked, dose response (AID 624132); assay type: functional;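 further: firefly luciferase luminescence from reporter carrying the Shn3 3'UTR in osteoblasts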
Paired box protein Pax-8 = Paired box protein Pax-8 (Homo sapiens, UniProt Q06710); test: PAX8 transcriptional activity inhibition in RMG-I – RMG-I cells, luciferase, cherry-pick, dose response (AID 687027); assay type: functional, cell-based;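 further: luciferase reporter driven by Pax8 target thyroperoxidase promoter measured by SteadyGlo luminescence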
Paired box protein Pax-8, sequence (Q06710 whole entry): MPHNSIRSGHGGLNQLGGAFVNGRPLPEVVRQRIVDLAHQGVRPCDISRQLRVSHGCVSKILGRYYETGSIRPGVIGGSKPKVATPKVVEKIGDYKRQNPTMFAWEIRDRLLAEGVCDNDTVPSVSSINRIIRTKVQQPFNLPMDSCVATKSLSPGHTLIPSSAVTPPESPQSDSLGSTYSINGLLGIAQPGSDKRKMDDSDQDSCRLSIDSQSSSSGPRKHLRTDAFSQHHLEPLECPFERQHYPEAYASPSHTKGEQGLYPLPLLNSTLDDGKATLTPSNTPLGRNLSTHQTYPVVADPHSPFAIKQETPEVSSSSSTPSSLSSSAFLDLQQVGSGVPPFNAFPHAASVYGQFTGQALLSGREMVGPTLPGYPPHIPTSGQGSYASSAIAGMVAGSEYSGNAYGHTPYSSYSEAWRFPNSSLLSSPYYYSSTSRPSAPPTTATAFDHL

[10] = target: T4, DNA repair protein RAD52 homolog (Homo sapiens, UniProt P43351); assay type: functional, biochemical
T4 sequence (P43351 whole entry): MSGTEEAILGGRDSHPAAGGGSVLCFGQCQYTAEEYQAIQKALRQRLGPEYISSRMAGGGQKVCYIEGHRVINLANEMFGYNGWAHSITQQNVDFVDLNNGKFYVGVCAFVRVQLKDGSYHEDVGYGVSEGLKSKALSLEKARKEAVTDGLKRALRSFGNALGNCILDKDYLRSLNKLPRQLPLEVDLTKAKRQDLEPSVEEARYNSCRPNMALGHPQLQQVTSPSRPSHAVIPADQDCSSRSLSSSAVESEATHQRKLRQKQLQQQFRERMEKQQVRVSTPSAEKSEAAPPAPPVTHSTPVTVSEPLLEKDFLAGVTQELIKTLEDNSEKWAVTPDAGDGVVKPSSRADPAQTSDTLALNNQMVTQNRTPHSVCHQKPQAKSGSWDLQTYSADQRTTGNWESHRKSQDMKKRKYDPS

[11] = loss of viability in HepG2 cells – cell-based, CellTiter-Glo, cherry-picked, cytotoxicity control for Shn3 inhibitor project, dose response (AID 624134); assay type: functional
[12] = viability loss in HeLa cells – cytotoxicity control for MgcRacGAP inhibitor project, dose response (AID 624300); assay type: functional
[13] = target: T5, Rac GTPase-activating protein 1 (Homo sapiens, UniProt Q9H0H5); test: blockers of MgcRacGAP-driven Rac1 GTP hydrolysis – biochemical, ADP Hunter fluorescence, primary and confirmatory, confirmation (AID 624330); assay type: functional
T5 sequence (Q9H0H5 whole entry): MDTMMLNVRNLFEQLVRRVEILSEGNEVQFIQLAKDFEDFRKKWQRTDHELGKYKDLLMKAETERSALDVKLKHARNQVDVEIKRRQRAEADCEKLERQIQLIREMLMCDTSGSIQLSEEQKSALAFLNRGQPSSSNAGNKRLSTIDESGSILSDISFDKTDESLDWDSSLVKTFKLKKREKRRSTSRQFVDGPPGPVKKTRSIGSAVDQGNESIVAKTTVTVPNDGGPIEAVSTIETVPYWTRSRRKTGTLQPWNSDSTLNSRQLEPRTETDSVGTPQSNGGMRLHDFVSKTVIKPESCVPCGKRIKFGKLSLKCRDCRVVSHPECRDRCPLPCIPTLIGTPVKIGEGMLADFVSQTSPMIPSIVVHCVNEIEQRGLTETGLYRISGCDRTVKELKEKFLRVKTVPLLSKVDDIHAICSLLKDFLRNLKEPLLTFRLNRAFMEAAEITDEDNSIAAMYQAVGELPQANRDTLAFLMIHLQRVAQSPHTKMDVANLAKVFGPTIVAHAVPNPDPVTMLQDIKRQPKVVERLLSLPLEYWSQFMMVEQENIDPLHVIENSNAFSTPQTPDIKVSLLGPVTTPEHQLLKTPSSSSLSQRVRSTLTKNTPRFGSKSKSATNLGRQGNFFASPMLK

[14] = non-specific 3'UTR reporter inhibition in Clone20-Shn3RL – cell-based, Renilla luciferase, cherry-picked, counter-screen for Shn3 inhibitor project, dose response (AID 624133); assay type: functional
[15] = target: T6, Histone-lysine N-methyltransferase NSD2 (Homo sapiens, UniProt O96028); assay type: biochemical
T6 sequence (O96028 whole entry): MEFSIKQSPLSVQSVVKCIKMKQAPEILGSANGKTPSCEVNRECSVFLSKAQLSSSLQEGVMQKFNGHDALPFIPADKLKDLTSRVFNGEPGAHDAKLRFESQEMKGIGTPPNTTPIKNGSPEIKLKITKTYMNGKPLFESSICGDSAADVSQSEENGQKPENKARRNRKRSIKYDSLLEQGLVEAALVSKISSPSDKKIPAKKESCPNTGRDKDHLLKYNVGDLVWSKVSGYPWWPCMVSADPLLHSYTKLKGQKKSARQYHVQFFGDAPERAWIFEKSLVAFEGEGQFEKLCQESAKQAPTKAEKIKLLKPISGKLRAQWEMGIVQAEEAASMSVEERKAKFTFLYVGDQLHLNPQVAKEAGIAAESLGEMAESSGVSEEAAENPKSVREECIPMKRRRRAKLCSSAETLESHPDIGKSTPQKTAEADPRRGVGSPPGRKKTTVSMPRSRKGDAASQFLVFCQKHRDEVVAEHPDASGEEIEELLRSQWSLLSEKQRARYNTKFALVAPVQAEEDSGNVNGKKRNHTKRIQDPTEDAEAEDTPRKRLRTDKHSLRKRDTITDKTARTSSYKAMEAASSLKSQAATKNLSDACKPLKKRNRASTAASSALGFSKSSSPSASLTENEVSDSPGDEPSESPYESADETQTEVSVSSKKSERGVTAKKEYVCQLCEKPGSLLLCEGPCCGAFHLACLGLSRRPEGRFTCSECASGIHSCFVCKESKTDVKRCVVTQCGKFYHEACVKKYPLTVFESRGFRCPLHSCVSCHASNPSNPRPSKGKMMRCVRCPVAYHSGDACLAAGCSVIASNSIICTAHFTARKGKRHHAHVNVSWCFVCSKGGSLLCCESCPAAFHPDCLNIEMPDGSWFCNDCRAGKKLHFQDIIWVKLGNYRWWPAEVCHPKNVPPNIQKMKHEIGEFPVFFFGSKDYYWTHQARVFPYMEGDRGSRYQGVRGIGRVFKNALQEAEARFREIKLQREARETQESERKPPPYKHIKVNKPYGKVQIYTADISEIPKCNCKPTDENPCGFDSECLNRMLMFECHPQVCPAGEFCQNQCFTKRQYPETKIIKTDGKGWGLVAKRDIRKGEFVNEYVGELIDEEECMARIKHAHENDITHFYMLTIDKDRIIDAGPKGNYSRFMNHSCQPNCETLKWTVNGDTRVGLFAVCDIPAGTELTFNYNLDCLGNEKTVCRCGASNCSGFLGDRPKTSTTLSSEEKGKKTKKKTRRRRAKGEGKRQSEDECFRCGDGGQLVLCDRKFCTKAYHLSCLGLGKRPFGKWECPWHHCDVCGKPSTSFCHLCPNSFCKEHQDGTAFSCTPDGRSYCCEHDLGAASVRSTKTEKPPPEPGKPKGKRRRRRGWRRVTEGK

T1 sequence (Q9UBE0 whole entry): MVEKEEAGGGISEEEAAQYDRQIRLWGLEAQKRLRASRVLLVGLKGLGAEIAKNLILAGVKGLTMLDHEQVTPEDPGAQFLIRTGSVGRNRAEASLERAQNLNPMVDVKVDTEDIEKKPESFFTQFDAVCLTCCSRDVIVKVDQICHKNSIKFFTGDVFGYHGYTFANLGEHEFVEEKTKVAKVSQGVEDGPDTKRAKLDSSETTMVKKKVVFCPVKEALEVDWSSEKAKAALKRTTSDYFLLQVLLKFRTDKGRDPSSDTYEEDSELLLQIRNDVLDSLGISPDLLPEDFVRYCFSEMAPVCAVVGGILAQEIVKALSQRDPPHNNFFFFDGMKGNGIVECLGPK
T1 sequence (Q9UBT2 whole entry): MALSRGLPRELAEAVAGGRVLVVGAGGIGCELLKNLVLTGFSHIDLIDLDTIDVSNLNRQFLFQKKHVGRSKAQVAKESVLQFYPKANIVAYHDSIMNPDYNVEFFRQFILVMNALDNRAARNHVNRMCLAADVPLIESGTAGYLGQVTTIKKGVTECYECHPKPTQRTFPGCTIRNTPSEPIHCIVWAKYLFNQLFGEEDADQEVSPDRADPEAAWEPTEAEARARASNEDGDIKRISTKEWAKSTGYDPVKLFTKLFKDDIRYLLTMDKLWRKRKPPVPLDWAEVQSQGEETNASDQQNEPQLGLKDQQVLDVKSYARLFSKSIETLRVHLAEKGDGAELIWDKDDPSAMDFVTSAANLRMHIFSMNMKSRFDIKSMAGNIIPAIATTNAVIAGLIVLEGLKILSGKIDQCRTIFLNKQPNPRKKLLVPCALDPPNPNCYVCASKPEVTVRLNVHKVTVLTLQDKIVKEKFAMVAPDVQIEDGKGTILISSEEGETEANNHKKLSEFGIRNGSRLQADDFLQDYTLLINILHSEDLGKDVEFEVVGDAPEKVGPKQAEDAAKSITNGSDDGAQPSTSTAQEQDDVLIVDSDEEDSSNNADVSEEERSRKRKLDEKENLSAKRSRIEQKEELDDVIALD

With `Cc1cc(=O)oc2cc(OCc3ccc(C(=O)OCC(=O)Nc4ccc(N(C)C)cc4)cc3)ccc12` the IC50 (SUMO-activating enzyme [1]) was 36.3 µM (active), the IC50 [2] was 6.17 µM (active) and the IC50 (SUMO-activating enzyme [3]) was 22.1 µM (active).
With `O=c1c2ccccc2sn1-c1ccc(F)c(Cl)c1` the IC50 (Phosphomannomutase 2) was > 100 µM (inactive), the IC50 [4] was > 50 µM (inactive) and the IC50 [5] was 1.79 µM (inactive).
In the case of `CCN(CC)CCCNc1[nH]c2ccccc2c2nc3ccc(OC)cc3c1-2`, the EC50 [6] is reported as > 67.5 µM (inactive), the CC50 [7] is reported as 1.41 µM (active) and the IC50 [8] is reported as > 67.5 µM (inactive). The AC50 [9] was 12.3 µM (active), the AC50 (Paired box protein Pax-8) was 6.91 µM (active) and the AC50 [10] was < 0.15 µM (active). For the same molecule, the AC50 [11] was 4.9 µM (active), the CC50 [12] was 15.1 µM (active) and the IC50 [13] was 31.7 µM (active). The AC50 [14] was 11.6 µM (active) and the AC50 [15] was > 20 µM (inactive).
